Results published in patent US8288428B2, “Compounds as cannabinoid receptor ligands” (Abbott Laboratories, priority 2009, dated 2012).
Read-outs that look alike come from different tables or passages of the source.

How the values were obtained:
human CB2 receptors = molecular target: T1, human CB2 receptors (Homo sapiens, UniProt P34972); assay: human CB2 radioligand binding assay
T1 construct: expressed in transfected cells; membrane preparation
Description: (§1) (i) In Vitro Methods—CB2 and CB1 Radioligand Binding Assays:
(§2) The CB1 and CB2 radioligand binding assays described herein are utilized to ascertain the selectivity of compounds of the present application for binding to CB2 relative to CB1 receptors.
(§3) HEK293 cells stably expressing human CB2 receptors were grown until a confluent monolayer was formed. Briefly, the cells were harvested and homogenized in TE buffer (50 mM Tris-HCl, 1 mM MgCl2, and 1 mM EDTA) using a polytron for 2×10 second bursts in the presence of protease inhibitors, followed by centrifugation at 45,000×g for 20 minutes. The final membrane pellet was re-homogenized in storage buffer (50 mM Tris-HCl, 1 mM MgCl2, and 1 mM EDTA and 10% sucrose) and frozen at −78° C. until used. Saturation binding reactions were initiated by the addition of membrane preparation (protein concentration of 5 μg/well for human CB2) into wells of a deep well plate containing [^3H]CP-55,940 (120 Ci/mmol, a nonselective CB agonist commercially available from Tocris) in assay buffer (50 mM Tris, 2.5 mM EDTA, 5 mM MgCl2, and 0.5 mg/mL fatty acid free BSA, pH 7.4). After 90 min incubation at 30° C., binding reaction was terminated by the addition of 300 μL/well of cold assay buffer followed by rapid vacuum filtration through a UniFilter-96 GF/C filter plates (pre-soaked in 1 mg/mL BSA for 2 hours). The bound activity was counted in a TopCount using Microscint-20. Saturation experiments were conducted with twelve concentrations of [^3H]CP-55,940 ranging from 0.01 to 8 nM. Competition experiments were conducted with 0.5 nM [^3H]CP-55,940 and five concentrations (0.01 nM to 10 μM) of displacing ligands. The addition of 10 μM unlabeled CP-55,940 (Tocris, Ellisville, Mo.) was used to assess nonspecific binding.

rat CB2 receptors = molecular target: T2, rat CB2 receptors (Rattus norvegicus, UniProt Q9QZN9); assay: rat CB2 radioligand binding assay
T2 construct: expressed in transfected cells; membrane preparation
T2 sequence (Q9QZN9 1-360): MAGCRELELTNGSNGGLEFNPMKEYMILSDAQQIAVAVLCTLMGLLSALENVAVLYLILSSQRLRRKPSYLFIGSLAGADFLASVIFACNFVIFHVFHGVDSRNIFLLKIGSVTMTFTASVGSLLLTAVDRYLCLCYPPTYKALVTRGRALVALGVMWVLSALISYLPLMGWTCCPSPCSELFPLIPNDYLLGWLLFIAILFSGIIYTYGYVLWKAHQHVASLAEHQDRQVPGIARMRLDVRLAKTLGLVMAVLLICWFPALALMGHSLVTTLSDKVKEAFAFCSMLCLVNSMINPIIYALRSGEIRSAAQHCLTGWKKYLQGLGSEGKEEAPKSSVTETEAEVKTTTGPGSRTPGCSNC
Description: as §1, §2
as §3, with “expressing rat” for “expressing human”, “of 20” for “of 5”, “for rat” for “for human”, “After 45” for “After 90”, “concentrations of displacing ligands selected from the range of 0.01” for “concentrations (0.01”, “10 μM.” for “10 μM) of displacing ligands.”

[1] = competition with 0.5 nM [3H]CP-55,940, HEK293 membranes expressing human CB2, read-out: human CB2 binding (Ki)
[2] = competition with 0.5 nM [3H]CP-55,940, HEK293 membranes expressing rat CB2, read-out: rat CB2 binding (Ki)

T1 sequence (P34972 whole entry): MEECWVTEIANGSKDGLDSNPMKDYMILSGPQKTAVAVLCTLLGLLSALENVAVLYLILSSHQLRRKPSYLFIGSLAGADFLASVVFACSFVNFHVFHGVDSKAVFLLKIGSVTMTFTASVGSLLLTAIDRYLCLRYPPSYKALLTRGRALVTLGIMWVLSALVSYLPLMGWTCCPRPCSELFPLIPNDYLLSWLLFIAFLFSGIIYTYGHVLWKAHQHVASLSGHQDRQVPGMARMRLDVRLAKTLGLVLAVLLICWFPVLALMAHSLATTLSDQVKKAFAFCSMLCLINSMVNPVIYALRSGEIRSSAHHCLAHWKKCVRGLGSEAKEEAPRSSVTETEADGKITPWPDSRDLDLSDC

CCCCn1/c(=N/C(=O)c2cc(C(F)(F)F)ccc2CCC(C)(C)O)cc(C(C)(C)C)n1C [Example 1, N-[(3E)-2-butyl-5-tert-butyl-1-methyl-1,2-dihydro-3H-pyrazol-3-ylidene]-2-(3-hydroxy-3-methylbutyl)-5-(trifluoromethyl)benzamide]
Ki (human CB2 receptors; [1]): 133 nM
Ki (rat CB2 receptors; [2]): 102 nM

CCCCCn1/c(=N/C(=O)c2cc(C(F)(F)F)ccc2CCC(C)(C)O)cc(C(C)(C)C)n1C [Example 2, N-[(3E)-5-tert-butyl-1-methyl-2-pentyl-1,2-dihydro-3H-pyrazol-3-ylidene]-2-(3-hydroxy-3-methylbutyl)-5-(trifluoromethyl)benzamide]
Ki (human CB2 receptors): 32.2 nM
Ki (rat CB2 receptors): 25 nM

Cn1c(C(C)(C)C)c/c(=N\C(=O)c2cc(C(F)(F)F)ccc2/C=C/C(C)(C)O)n1CC1CC1 [Example 3, N-[(3E)-5-tert-butyl-2-(cyclopropylmethyl)-1-methyl-1,2-dihydro-3H-pyrazol-3-ylidene]-2-[(1E)-3-hydroxy-3-methylbut-1-enyl]-5-(trifluoromethyl)benzamide]
Ki (human CB2 receptors): 41.7 nM
Ki (rat CB2 receptors): 37.2 nM

Cn1c(C(C)(C)C)c/c(=N\C(=O)c2cc(C(F)(F)F)ccc2CCC(C)(C)O)n1CC1CC1 [Example 4, N-[(3E)-5-tert-butyl-2-(cyclopropylmethyl)-1-methyl-1,2-dihydro-3H-pyrazol-3-ylidene]-2-(3-hydroxy-3-methylbutyl)-5-(trifluoromethyl)benzamide]
Ki (human CB2 receptors): 151 nM
Ki (rat CB2 receptors): 121 nM

CCCn1/c(=N/C(=O)c2cc(C(F)(F)F)ccc2/C=C/C(C)(C)O)cc(C(C)(C)C)n1C [Example 5, N-[(3E)-5-tert-butyl-1-methyl-2-propyl-1,2-dihydro-3H-pyrazol-3-ylidene]-2-[(1E)-3-hydroxy-3-methylbut-1-enyl]-5-(trifluoromethyl)benzamide]
Ki (human CB2 receptors): 277 nM
Ki (rat CB2 receptors): 89.6 nM

Cn1c(C(C)(C)C)c/c(=N\C(=O)c2cc(C(F)(F)F)ccc2/C=C/C(C)(C)O)n1CC1CCC1 [Example 6, N-[(3E)-5-tert-butyl-2-(cyclobutylmethyl)-1-methyl-1,2-dihydro-3H-pyrazol-3-ylidene]-2-[(1E)-3-hydroxy-3-methylbut-1-enyl]-5-(trifluoromethyl)benzamide]
Ki (human CB2 receptors): 10.9 nM
Ki (rat CB2 receptors): 3.29 nM

Cn1c(C(C)(C)C)c/c(=N\C(=O)c2cc(C(F)(F)F)ccc2CCC(C)(C)O)n1CC1CCC1 [Example 7, N-[(3E)-5-tert-butyl-2-(cyclobutylmethyl)-1-methyl-1,2-dihydro-3H-pyrazol-3-ylidene]-2-(3-hydroxy-3-methylbutyl)-5-(trifluoromethyl)benzamide]
Ki (human CB2 receptors): 20.8 nM
Ki (rat CB2 receptors): 17.2 nM

Cn1c(C(C)(C)C)c/c(=N\C(=O)c2cc(C(F)(F)F)ccc2CN2CC(O)C2)n1CC1CC1 [Example 9, N-[(3E)-5-tert-butyl-2-(cyclopropylmethyl)-1-methyl-1,2-dihydro-3H-pyrazol-3-ylidene]-2-[(3-hydroxyazetidin-1-yl)methyl]-5-(trifluoromethyl)benzamide]
Ki (human CB2 receptors): 30.1 nM
Ki (rat CB2 receptors): 24.8 nM

Cn1c(C(C)(C)C)c/c(=N\C(=O)c2cc(C(F)(F)F)ccc2CN2CC(C)(O)C2)n1CC1CC1 [Example 10, N-[(3E)-5-tert-butyl-2-(cyclopropylmethyl)-1-methyl-1,2-dihydro-3H-pyrazol-3-ylidene]-2-[(3-hydroxy-3-methylazetidin-1-yl)methyl]-5-(trifluoromethyl)benzamide]
Ki (human CB2 receptors): 186 nM
Ki (rat CB2 receptors): 108 nM

CCCCn1/c(=N/C(=O)c2cc(C(F)(F)F)ccc2CCC(=O)OCC)cc(C(C)(C)C)n1C [Example 11, ethyl 3-[2-({[(3E)-2-butyl-5-tert-butyl-1-methyl-1,2-dihydro-3H-pyrazol-3-ylidene]amino}carbonyl)-4-(trifluoromethyl)phenyl]propanoate]
Ki (human CB2 receptors): 53.3 nM
Ki (rat CB2 receptors): 32.5 nM

CCCCn1/c(=N/C(=O)c2cc(C(F)(F)F)ccc2CN2CC(C)(O)C2)cc(C(C)(C)C)n1C [Example 12, N-[(3E)-2-butyl-5-tert-butyl-1-methyl-1,2-dihydro-3H-pyrazol-3-ylidene]-2-[(3-hydroxy-3-methylazetidin-1-yl)methyl]-5-(trifluoromethyl)benzamide]
Ki (human CB2 receptors; [1]): 142 nM
Ki (rat CB2 receptors; [2]): 177 nM

CCCCn1/c(=N/C(=O)c2cc(C(F)(F)F)ccc2CN2CC[C@@H](O)C2)cc(C(C)(C)C)n1C [Example 13, N-[(3E)-2-butyl-5-tert-butyl-1-methyl-1,2-dihydro-3H-pyrazol-3-ylidene]-2-{[(3R)-3-hydroxypyrrolidin-1-yl]methyl}-5-(trifluoromethyl)benzamide]
Ki (rat CB2 receptors; [2]): 453 nM

COCCCn1/c(=N/C(=O)c2cc(C(F)(F)F)ccc2/C=C/C(C)(C)O)cc(C(C)(C)C)n1C [Example 14, N-[(3E)-5-tert-butyl-2-(3-methoxypropyl)-1-methyl-1,2-dihydro-3H-pyrazol-3-ylidene]-2-[(1E)-3-hydroxy-3-methylbut-1-enyl]-5-(trifluoromethyl)benzamide]
Ki (human CB2 receptors; [1]): 111 nM
Ki (rat CB2 receptors): 30.6 nM

COCCCn1/c(=N/C(=O)c2cc(C(F)(F)F)ccc2CCC(C)(C)O)cc(C(C)(C)C)n1C [Example 15, N-[(3E)-5-tert-butyl-2-(3-methoxypropyl)-1-methyl-1,2-dihydro-3H-pyrazol-3-ylidene]-2-(3-hydroxy-3-methylbutyl)-5-(trifluoromethyl)benzamide]
Ki (rat CB2 receptors; [2]): 220 nM

CCCCn1nc(C(C)(C)C)s/c1=N\C(=O)c1cc(C(F)(F)F)ccc1CN1CC(O)C1 [Example 16, N-[(2Z)-3-butyl-5-tert-butyl-1,3,4-thiadiazol-2(3H)-ylidene]-2-[(3-hydroxyazetidin-1-yl)methyl]-5-(trifluoromethyl)benzamide]
Ki (human CB2 receptors): 1.63 nM
Ki (rat CB2 receptors): 0.8 nM

CCCCn1nc(C(C)(C)C)s/c1=N\C(=O)c1cc(C(F)(F)F)ccc1CN1CC(C)(O)C1 [Example 17, N-[(2Z)-3-butyl-5-tert-butyl-1,3,4-thiadiazol-2(3H)-ylidene]-2-[(3-hydroxy-3-methylazetidin-1-yl)methyl]-5-(trifluoromethyl)benzamide]
Ki (human CB2 receptors): 5.9 nM
Ki (rat CB2 receptors): 1.45 nM

CCCCn1nc(C(C)(C)C)s/c1=N\C(=O)c1cc(C(F)(F)F)ccc1CN1CC[C@H](O)C1 [Example 18, N-[(2Z)-3-butyl-5-tert-butyl-1,3,4-thiadiazol-2(3H)-ylidene]-2-{[(3S)-3-hydroxypyrrolidin-1-yl]methyl}-5-(trifluoromethyl)benzamide]
Ki (human CB2 receptors): 14.9 nM
Ki (rat CB2 receptors): 1.59 nM

CCCCn1nc(C(C)(C)C)s/c1=N\C(=O)c1cc(C(F)(F)F)ccc1CN1CC[C@@H](O)C1 [Example 19, N-[(2Z)-3-butyl-5-tert-butyl-1,3,4-thiadiazol-2(3H)-ylidene]-2-{[(3R)-3-hydroxypyrrolidin-1-yl]methyl}-5-(trifluoromethyl)benzamide]
Ki (human CB2 receptors): 15.3 nM
Ki (rat CB2 receptors): 3.85 nM

CCCCn1nc(C(C)(C)C)s/c1=N\C(=O)c1cc(C(F)(F)F)ccc1CO [Example 20, N-[(2Z)-3-butyl-5-tert-butyl-1,3,4-thiadiazol-2(3H)-ylidene]-2-(hydroxymethyl)-5-(trifluoromethyl)benzamide]
Ki (human CB2 receptors): 1.89 nM
Ki (rat CB2 receptors): 0.57 nM
